Experiments:
[1] = tested on: histone deacetylase enzyme in nuclear extracts from H446 cells (pooled HDACs); test: Histone deacetylase inhibition, H446 nuclear extracts (pooled HDACs); format: biochemical, human; conditions: for IC50: H446 nuclear extract, [3H]-acetylated histone substrate; for pooled HDACs percent inhibition: percent inhibition at 20 μM (footnote)
Method: HDAC inhibitors were screened against histone deacetylase enzyme in nuclear extracts prepared from the human small cell lung cancer cell line H446 (ATTC HTB-171) and against a cloned recombinant human HDAC-1 enzyme expressed and purified from a Baculovirus insect cell expression system.
(§1) For deacetylase assays, 20,000 cpm of the [^3H]-metabolically labeled acetylated histone substrate (M. Yoshida et al., J. Biol. Chem. 265(28): 17174-17179 (1990)) was incubated with 30 μg of H446 nuclear extract or an equivalent amount of the cloned recombinant hHDAC-1 for 10 minutes at 37° C. The reaction was stopped by adding acetic acid (0.04 M, final concentration) and HCl (250 mM, final concentration). The mixture was extracted with ethyl acetate and the released [^3H]-acetic acid was quantified by scintillation counting. For inhibition studies, the enzyme was preincubated with compounds at 4° C. for 30 minutes prior to initiation of the enzymatic assay. IC50 values for HDAC enzyme inhibitors were determined by performing dose response curves with individual compounds and determining the concentration of inhibitor producing fifty percent of the maximal inhibition.

[2] = target: T1, recombinant human HDAC-1 enzyme (rHDAC-1) (Homo sapiens, UniProt Q13547); test: Histone deacetylase inhibition, recombinant human HDAC-1; format: biochemical; conditions: cloned recombinant human HDAC-1, Baculovirus insect cell expression; read-out: rHDAC-1 IC50
T1 construct: made in house; host or cells: Baculovirus insect cell expression system
Method: as §1, with “The” for “For deacetylase assays, 20,000 cpm of the [^3H]-metabolically labeled acetylated histone substrate (M. Yoshida et al., J. Biol. Chem. 265(28): 17174-17179 (1990)) was incubated with 30 μg of H446 nuclear extract or an equivalent amount of the cloned recombinant hHDAC-1 for 10 minutes at 37° C. The”

T1 sequence (Q13547 whole entry): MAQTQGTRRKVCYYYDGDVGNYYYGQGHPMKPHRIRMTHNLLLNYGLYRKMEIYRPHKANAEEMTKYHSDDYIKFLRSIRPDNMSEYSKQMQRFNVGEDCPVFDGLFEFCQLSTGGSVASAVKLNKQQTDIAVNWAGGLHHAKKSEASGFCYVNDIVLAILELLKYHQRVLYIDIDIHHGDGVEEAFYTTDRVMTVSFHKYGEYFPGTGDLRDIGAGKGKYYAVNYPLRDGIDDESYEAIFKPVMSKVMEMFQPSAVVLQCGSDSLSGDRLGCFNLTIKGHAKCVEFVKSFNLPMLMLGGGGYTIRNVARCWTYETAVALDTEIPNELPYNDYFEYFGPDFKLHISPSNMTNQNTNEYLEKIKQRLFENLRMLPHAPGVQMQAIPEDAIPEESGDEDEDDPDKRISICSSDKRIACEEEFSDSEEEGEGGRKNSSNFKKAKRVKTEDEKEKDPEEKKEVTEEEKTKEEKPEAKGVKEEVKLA

Row | Structure (SMILES) | IC50 [2] [nM] | IC50 [1] [nM] | also measured
1 | O=C(CCCCCCC(=O)c1cnc2ccccc2c1)NO [Compound 141b, N-Hydroxy-7-[(3-quinolinyl)carbonyl]heptanamide] | 35 | – | pooled HDACs percent inhibition @ 1 μM [1]: 71%@ 1 μM
2 | O=C(CCCCCCC(=NO)c1ccccc1)NO [Compound 51a, N-Hydroxy-8-oximino-8-phenyloctanamide] | 100 | 350 | –
3 | COc1ccc(C(=O)C(C)(C)CCCCC(=O)NO)cc1 [Compound 58, N-Hydroxy-6-methyl-6-(4-methoxybenzoyl)-heptanamide] | 250 | 3000 | –
4 | O=C(CCCCCC/C(=N\O)c1ccc(-c2ccccc2)cc1)NO [(E)-51h, N-Hydroxy-8-(E)-oximino-8-(4-biphenyl)octanamide] | – | – | pooled HDACs percent inhibition [1]: 99%
5 | O=C(CCCCCCC(=O)c1cc2ccccc2s1)NO [Compound 52m, N-hydroxy-7-(2-benzothiophene)carbonylheptanamide] | 10 | 100 | –
6 | O=C(CCCCCCC(=O)c1ccc2ccccc2c1)Nc1ccccc1O [Compound 66, N-(2-Hydroxyphenyl)-7-(2-naphthoyl)heptanamide] | 2300 | – | pooled HDACs percent inhibition [1]: 0%
7 | O=C(CS)CCCCCC(=O)c1cc2ccccc2s1 [Compound 161, 1-Mercapto-2,8-dioxo-8-(2-benzo[b]thiophene)-octane] | 71 | 94 | –
8 | O=C(CCCCCCC(=O)c1ccccn1)NO [Compound 141a2, N-Hydroxy-7-[(2-pyridyl)carbonyl]heptanamide] | – | – | pooled HDACs percent inhibition @ 1 μM [1]: 12%@ 1 μM
9 | CC(CCCCCC(=O)c1ccc2ccccc2c1)C(=O)NO (centres unmarked) [Compound 175, N-Hydroxy-2-methyl-7-(2-naphthoyl)heptanamide] | – | 2500 | –
10 | O=C(CCCCCCC(=O)c1ccc(Nc2ccccn2)cc1)NO [Compound 138d, N-Hydroxy-7-[4-(N-2-aminopyridyl)benzoyl]heptanamide] | 4 | 20 | –
11 | COC(c1ccc(N(C)C)cc1)C(C)/C=C(C)/C=C/C(=O)NO (centres unmarked) [Compound 33, N-Hydroxy-4,6-dimethyl-7-methoxy-7-[4-(N,N-dimethylamino)phenyl]-2,4-heptadienamide] | – | > 10000 | –
12 | O=C(CCCCCCC(=O)c1ccccc1)Nc1cccnc1 [Compound 252] | > 20000 | – | pooled HDACs percent inhibition [1]: 0%
13 | Nc1ccccc1NC(=O)NCCCCCC(=O)c1ccc(-c2ccccc2)cc1 [Compound 92, N-(2-Aminophenyl)-N′-[5-((4biphenyl)carbonyl)pentyl]urea] | 15900 | – | pooled HDACs percent inhibition [1]: 0%
14 | O=C(CCCCCCC(=O)c1ccco1)NO [Compound 52i, N-hydroxy-7-(2-furanoyl)-heptanamide] | 100 | 3000 | –
15 | Nc1ccccc1NC(=O)CCCCCCC(=NO)c1ccc2ccccc2c1 (mixture of isomers) [Compound 106, N-(2-Aminophenyl)-8-(E)-oximino-8-(2-naphthyl)octanamide] | 4000 | > 20000 | –
16 | CC(CCCCC(=O)c1ccc2ccccc2c1)CC(=O)NO (centres unmarked) [Compound 199, N-Hydroxy-3-methyl-7-(2-naphthoyl)heptanamide] | 30 | 80 | –
17 | O=C(CCCCCCC(=O)c1cc2ccccc2o1)NO [Compound 52l, N-hydroxy-7-(2-benzofuran)carbonylheptanamide] | 30 | 300 | –
18 | O=C(CCCCCCC(=O)c1ccc(Nc2nccs2)cc1)NO [Compound 138e, N-Hydroxy-7-[4-(N-2-aminothiazolyl)benzoyl]heptanamide] | 4 | 20 | –
19 | O=C(CCCCCC(=O)c1cc2ccccc2s1)NO [Compound 113, N-Hydroxy-6-[(2-benzo[b]thiophene)carbonyl]hexanamide] | 130 | – | pooled HDACs percent inhibition @ 1 μM [1]: 33%@ 1 μM

Row | Structure (SMILES) | IC50 [2] [nM] | IC50 [1] [nM] | also measured
20 | O=C(CCCCCC/C(=N\O)c1ccc2ccccc2c1)NO [Compound 97, N-Hydroxy-8-(E)-oximino-8-(2-naphthyl)octanamide] | – | 30 | –
21 | COC(C/C=C/C=C/C(=O)NO)c1ccc(N(C)C)cc1 (centres unmarked) [Compound 17, N-Hydroxy7-methoxy-7-[4-(N,N-dimethylamino)phenyl]-2,4-heptadienamide] | 250 | 4000 | –
22 | O=C(CCCCCCC(=O)c1ccc(Br)cc1)NO [Compound 52d, N-hydroxy-7-(4-bromobenzoyl)heptanamide] | – | 50 | –
23 | CC(=O)SCC(=O)CCCCCCC(=O)c1cc2ccccc2[nH]1 [Compound 167, 1-Acetylthio-2,9-dioxo-9-(2-indolyl)-nonane] | 400 | 300 | –
24 | CC(=O)SCC(=O)CCCCCCC(=O)c1cc2ccccc2s1 [Compound 162, 1-Acetylthio-2,9-dioxo-9-(2-benzo[b]thiophene)-nonane] | 35 | 40 | –
25 | CC(=O)SCC(=O)CCCCCC(=O)c1cc2ccccc2s1 [Compound 160, 1-Acetylthio-2,8dioxo-8-(2-benzo[b]thiophene)-octane] | 130 | 80 | –
26 | O=C(CCCCCn1nnc2ccccc2c1=O)NO [Compound 238b, N-Hydroxy-6-[3-(4-oxo-4H-benzo[d][1,2,3]triazinyl)]hexanamide] | 760 | – | pooled HDACs percent inhibition @ 1 μM [1]: 20%@ 1 μM
27 | O=C(CCCCCCC(=O)c1ccccc1)CSc1ccccc1 [Compound 159d, 1-Phenylthio-2,9-dioxo-9-phenyl-nonane] | 5000 | 50000 | –
28 | O=C(CCCCCCC(=O)c1ccccc1)CSCc1ccccc1 [Compound 159c, 1-Benzylthio-2,9-dioxo-9-phenyl-nonane] | 5000 | – | pooled HDACs percent inhibition @ 5 μM ([1]; @ 5 μM): 0%@ 5 μM
29 | CC(CCC(=O)NO)CC(C)C(=O)c1ccc(N(C)C)cc1 (centres unmarked) [Compound 62, N-Hydroxy-4-Methyl-6-[4-(N,N-dimethylamino)benzoyl]heptanamide] | – | 1100 | –
30 | COC(C/C=C/C=C/C(=O)NO)c1ccccc1 (centres unmarked) [Compound 12, N-Hydroxy-7-methoxy-7-phenyl-2,4-heptadienamide] | – | 9400 | –
31 | O=C(CCCCCC/C(=N/O)c1ccc(-c2ccccc2)cc1)NO [(Z)-51h, N-Hydroxy-8-(Z)-oximino-8-(4-biphenyl)octanamide] | – | – | pooled HDACs percent inhibition [1]: 75%
32 | Nc1ccccc1NC(=O)CCCCCN1C(=O)c2cccc3cc(O)cc(c23)C1=O [Compound 251a, N-(2-Aminophenyl)-6-[2-(5-hydroxy-1,3-dioxo-1H,3H-benzo[de]isoquinolinyl)]hexanamide] | – | – | pooled HDACs percent inhibition [1]: 0%
33 | O=C(CCCCCCC(=O)c1cccs1)NO [Compound 52k, N-hydroxy-7-(2-thiophene)carbonylheptanamide] | – | 900 | –
34 | O=C(CCCCCCC(=O)c1ccc(N2CCCCC2)cc1)NO [Compound 138h, N-Hydroxy-7-[4-(1-piperidinyl)benzoyl]heptanamide] | – | 48 | –
35 | CC(/C=C/C(=O)NO)=C\C(C)Cc1ccc(N(C)C)cc1 (centres unmarked) [Compound 38, N-Hydroxy-4,6-dimethyl-7-[4-(N,N-dimethylamino)phenyl]-2,4-heptadienamide] | – | > 20000 | –
36 | Nc1ccccc1NC(=O)CCCCCn1cnc2ccccc2c1=O [Compound 239a, N-(2-Aminophenyl)-6-[3-(4-oxo-4H-quinazolinyl)]hexanamide] | – | – | pooled HDACs percent inhibition [1]: 0%
37 | COc1ccc(C(OC)C(C)(C)/C=C/C=C/C(=O)Nc2ccccc2N)cc1 (centres unmarked) [Compound 27, N-(2-Aminophenyl)-6,6-dimethyl-7-methoxy-7-(4-methoxyphenyl)-2,4-heptadienamide] | – | > 100000 | –

Reference: patent publication US7288567B2, “Inhibitors of histone deacetylase” (Methylgene Inc., priority 2000, dated 2007)
